From ChEMBL document CHEMBL4622954, “Structural manipulation of aporphines via C10 nitrogenation leads to the identification of new 5-HT7AR ligands” (Bioorg Med Chem, 2020)
Counter-ions that a name gives are not always drawn.

Columns and labels:
[1] = biological target: 5-hydroxytryptamine receptor 2A (Homo sapiens, UniProt P28223);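 further: [3H]-Ketanserin displacement from the 5-HT2A receptor after 90 min incubation, with bound label read by MicroBeta counting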
Description: Displacement of [3H]-Ketanserin from 5-HT2A receptor (unknown origin) incubated for 90 mins by microbeta counting method

[2] = biological target: T1, 5-hydroxytryptamine receptor 1A (Homo sapiens, UniProt P08908); test: biochemical
T1 sequence (P08908 whole entry): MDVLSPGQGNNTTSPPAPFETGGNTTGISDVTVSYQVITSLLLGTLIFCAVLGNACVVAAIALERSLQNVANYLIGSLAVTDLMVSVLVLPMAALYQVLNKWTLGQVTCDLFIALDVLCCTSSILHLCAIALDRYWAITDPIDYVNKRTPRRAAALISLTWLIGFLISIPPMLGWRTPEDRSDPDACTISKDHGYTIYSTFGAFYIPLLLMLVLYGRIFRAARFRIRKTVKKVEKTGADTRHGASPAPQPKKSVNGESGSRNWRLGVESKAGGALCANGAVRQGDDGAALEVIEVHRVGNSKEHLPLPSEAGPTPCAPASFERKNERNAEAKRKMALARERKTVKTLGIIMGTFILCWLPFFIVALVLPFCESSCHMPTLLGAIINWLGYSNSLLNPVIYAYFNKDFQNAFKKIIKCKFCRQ
Description: (§2) Displacement of [3H]-WAY100635 from human 5-HT1A receptor expresssed in stable CHO cell membrane incubated for 90 mins by microbeta counting method

[3] = biological target: T2, 5-hydroxytryptamine receptor 6 (Homo sapiens, UniProt P50406); test: biochemical
T2 sequence (P50406 whole entry): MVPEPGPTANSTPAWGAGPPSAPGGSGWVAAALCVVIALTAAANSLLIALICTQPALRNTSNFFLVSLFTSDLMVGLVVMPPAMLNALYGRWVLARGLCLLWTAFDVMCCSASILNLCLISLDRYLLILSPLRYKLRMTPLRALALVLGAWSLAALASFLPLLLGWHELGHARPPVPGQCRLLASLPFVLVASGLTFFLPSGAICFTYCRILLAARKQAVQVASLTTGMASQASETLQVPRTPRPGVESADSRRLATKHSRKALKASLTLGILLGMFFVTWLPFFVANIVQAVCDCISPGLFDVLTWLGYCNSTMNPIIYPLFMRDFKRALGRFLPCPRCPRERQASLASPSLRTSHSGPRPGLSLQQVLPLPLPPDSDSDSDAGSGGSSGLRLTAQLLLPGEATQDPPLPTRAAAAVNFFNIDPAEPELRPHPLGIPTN

[4] = biological target: T3, 5-hydroxytryptamine receptor 7 (Homo sapiens, UniProt P34969); test: biochemical
T3 sequence (P34969 whole entry): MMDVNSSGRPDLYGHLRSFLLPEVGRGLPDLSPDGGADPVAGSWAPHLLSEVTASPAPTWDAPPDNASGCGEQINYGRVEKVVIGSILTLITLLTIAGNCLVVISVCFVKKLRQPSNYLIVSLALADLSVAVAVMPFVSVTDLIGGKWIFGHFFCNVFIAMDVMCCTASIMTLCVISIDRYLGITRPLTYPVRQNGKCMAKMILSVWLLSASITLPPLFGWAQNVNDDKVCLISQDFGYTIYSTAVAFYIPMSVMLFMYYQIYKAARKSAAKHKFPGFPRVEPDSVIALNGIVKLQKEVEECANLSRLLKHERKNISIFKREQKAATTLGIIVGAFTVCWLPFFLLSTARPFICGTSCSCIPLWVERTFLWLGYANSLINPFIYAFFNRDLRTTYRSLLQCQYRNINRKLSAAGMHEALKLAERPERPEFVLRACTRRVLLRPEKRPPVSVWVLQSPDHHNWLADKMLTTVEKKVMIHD
Description: (§3) Displacement of [3H]-LSD from human 5-HT7A receptor expresssed in stable HEK cell membrane incubated for 90 mins by microbeta counting method

[5] = biological target: T3, 5-hydroxytryptamine receptor 7; test: Antagonist activity at human recombinant 5-HT7 receptor expressed in CHOK1 Hunter cell preincubated for 30 mins followed by incubation with agonist for 30 to 60 mins by hit-hunter cAMP assay based chemiluminescence analysis; type: functional, CHO-K1
D(4) dopamine receptor = biological target: T4, D(4) dopamine receptor (Homo sapiens, UniProt P21917); test: (§1) Displacement of [3H]-N-Methylspiperone from human dopamine D4 receptor expressed in stable HEK cells incubated for 90 mins by microbeta counting method; type: cell-based
T4 sequence (P21917 whole entry): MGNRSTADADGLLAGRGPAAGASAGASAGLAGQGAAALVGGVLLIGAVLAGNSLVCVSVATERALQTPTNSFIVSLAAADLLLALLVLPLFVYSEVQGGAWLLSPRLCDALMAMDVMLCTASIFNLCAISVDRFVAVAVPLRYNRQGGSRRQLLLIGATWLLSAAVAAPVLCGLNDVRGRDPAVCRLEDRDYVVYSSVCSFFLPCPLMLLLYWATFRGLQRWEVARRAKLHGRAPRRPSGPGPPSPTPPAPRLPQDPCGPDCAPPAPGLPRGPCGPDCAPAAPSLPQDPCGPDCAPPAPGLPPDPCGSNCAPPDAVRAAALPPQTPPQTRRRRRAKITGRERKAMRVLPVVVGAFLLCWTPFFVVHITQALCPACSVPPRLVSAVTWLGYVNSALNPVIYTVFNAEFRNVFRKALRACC

D(1B) dopamine receptor = D(1B) dopamine receptor (Homo sapiens, UniProt P21918); test: Binding affinity to human dopamine D5 receptor expressed in HEKT cells incubated for 90 mins by microbeta counting method; type: cell-based
D(1B) dopamine receptor, sequence (P21918 whole entry): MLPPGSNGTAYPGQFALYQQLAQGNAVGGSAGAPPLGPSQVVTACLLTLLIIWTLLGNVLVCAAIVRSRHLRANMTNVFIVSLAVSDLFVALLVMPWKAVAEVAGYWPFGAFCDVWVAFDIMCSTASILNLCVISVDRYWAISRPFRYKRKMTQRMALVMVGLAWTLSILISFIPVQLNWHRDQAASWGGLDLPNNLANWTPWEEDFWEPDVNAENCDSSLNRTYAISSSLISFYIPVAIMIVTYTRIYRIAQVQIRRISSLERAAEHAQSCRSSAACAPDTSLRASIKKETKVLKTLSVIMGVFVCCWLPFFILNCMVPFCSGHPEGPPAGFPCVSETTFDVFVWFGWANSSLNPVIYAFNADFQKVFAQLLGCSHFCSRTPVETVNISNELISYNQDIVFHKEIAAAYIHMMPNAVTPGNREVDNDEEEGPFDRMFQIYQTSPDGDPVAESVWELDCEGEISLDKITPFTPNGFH

D(3) dopamine receptor = D(3) dopamine receptor (Homo sapiens, UniProt P35462)
D(3) dopamine receptor, sequence (P35462 whole entry): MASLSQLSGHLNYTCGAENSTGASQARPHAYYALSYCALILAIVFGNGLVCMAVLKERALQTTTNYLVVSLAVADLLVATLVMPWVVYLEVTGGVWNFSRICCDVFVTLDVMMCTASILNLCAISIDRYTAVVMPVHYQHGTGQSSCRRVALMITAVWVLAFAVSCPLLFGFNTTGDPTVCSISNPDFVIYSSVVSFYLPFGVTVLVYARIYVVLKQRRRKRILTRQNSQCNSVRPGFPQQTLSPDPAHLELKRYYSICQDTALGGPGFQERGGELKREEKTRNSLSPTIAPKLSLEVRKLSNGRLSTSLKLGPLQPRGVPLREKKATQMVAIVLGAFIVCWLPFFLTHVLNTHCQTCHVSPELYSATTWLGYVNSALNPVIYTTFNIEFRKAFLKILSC
Description: Displacement of [3H]-N-Methylspiperone from dopamine D3 receptor (unknown origin) incubated for 90 mins by microbeta counting method

[6] = biological target: T2, 5-hydroxytryptamine receptor 6
D(1A) dopamine receptor [7] = biological target: T5, D(1A) dopamine receptor (Homo sapiens, UniProt P21728); test: biochemical
T5 sequence (P21728 whole entry): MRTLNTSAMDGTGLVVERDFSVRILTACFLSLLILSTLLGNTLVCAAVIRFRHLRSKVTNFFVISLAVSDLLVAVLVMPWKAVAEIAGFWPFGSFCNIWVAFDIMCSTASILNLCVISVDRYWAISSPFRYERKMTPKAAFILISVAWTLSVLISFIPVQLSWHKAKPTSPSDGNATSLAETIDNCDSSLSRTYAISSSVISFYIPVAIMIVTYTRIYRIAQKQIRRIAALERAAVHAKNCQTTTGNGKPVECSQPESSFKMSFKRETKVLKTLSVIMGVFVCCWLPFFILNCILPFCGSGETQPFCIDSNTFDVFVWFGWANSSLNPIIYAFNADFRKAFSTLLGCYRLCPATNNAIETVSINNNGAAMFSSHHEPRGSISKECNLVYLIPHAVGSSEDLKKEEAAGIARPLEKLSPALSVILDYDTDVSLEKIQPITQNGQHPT

D(2) dopamine receptor [8] = biological target: T6, D(2) dopamine receptor (Homo sapiens, UniProt P14416); test: biochemical
T6 sequence (P14416 whole entry): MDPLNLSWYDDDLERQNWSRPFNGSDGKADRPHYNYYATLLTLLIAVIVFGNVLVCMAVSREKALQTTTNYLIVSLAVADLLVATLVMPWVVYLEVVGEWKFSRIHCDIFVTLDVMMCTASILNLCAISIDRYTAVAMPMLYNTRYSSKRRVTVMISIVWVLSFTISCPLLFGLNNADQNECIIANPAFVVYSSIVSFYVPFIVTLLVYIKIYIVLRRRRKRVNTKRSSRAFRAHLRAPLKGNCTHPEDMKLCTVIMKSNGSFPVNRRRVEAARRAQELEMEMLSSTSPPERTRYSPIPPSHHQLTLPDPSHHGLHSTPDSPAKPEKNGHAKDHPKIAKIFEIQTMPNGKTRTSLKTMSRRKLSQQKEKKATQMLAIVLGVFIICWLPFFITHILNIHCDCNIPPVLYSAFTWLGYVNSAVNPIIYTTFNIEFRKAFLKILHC

[9] = biological target: T2, 5-hydroxytryptamine receptor 6; test: Displacement of [3H]-LSD from human 5-HT6 receptor expresssed in stable HEK cell membrane incubated for 90 mins by microbeta counting method
[10] = biological target: T1, 5-hydroxytryptamine receptor 1A; details: cho
Description: as §2

[11] = biological target: T7, 5-hydroxytryptamine receptor 1A (Homo sapiens) (UniProt P08908); details: CHO
T7 sequence (whole entry): T1 sequence (P08908 whole entry)
Description: as §2

[12] = biological target: T3, 5-hydroxytryptamine receptor 7
Description: as §3

[13] = biological target: T3, 5-hydroxytryptamine receptor 7; remark: listed apart in the source
Description: as §3

D(1A) dopamine receptor [14] = biological target: T5, D(1A) dopamine receptor
D(2) dopamine receptor [15] = biological target: T6, D(2) dopamine receptor; details: fibroblast
[16] = biological target: T8, D(4) dopamine receptor (Homo sapiens) (UniProt P21917); test: as §1; type: cell-based
T8 sequence (whole entry): T4 sequence (P21917 whole entry)

Homo sapiens = species on record: Homo sapiens; test: Selectivity index, ratio of Ki for human 5-HT7A receptor expressed in stable HEK cell membrane to Ki for human 5-HT1A receptor expresssed in stable CHO cell membrane incubated for 90 mins by microbeta counting method; type: cell-based
D(1A) dopamine receptor [17] = biological target: T5, D(1A) dopamine receptor; test: Displacement of [3H]-SCH23390 from human dopamine D1 receptor expressed in HEKT cells incubated for 90 mins by microbeta counting method
D(2) dopamine receptor [18] = biological target: T6, D(2) dopamine receptor; test: Displacement of [3H]-N-Methylspiperone from human dopamine D2 receptor expressed in stable fibroblast cells incubated for 90 mins by microbeta counting method

5-hydroxytryptamine receptor 2A, sequence (P28223 whole entry): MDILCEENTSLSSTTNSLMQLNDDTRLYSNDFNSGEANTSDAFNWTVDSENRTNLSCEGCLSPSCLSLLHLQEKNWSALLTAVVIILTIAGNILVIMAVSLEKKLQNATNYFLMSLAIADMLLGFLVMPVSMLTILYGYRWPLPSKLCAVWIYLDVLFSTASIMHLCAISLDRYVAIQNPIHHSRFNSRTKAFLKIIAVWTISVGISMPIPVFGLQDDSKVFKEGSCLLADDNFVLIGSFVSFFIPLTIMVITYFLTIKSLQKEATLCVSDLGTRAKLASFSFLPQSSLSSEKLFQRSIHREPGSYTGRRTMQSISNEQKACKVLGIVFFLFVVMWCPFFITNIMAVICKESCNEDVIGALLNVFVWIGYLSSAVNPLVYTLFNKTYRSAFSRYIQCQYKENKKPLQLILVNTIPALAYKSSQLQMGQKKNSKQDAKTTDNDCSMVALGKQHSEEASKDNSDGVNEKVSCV

| Structure (SMILES) | Ki ([1]; read-out: Ki) | Ki [2] | Ki [3] | Ki [4] | Ki [6] | inhibition [9] | Ki [1] | other results |
| --- | --- | --- | --- | --- | --- | --- | --- | --- |
| COc1cc2c3c(c1OCC1CC1)-c1cc(N(C)C)ccc1CC3N(C)CC2 (racemic) | 878 nM | 1440 nM | 329 nM | 752 nM | – | – | – | – |
| C=CCOc1c(OC)cc2c3c1-c1cc(NC(=O)CCC)ccc1CC3N(C)CC2 (racemic) | 443 nM | 463 nM | 198 nM | 188 nM | – | – | – | – |
| O=C(CCCN1CCC2(CC1)C(=O)NCN2c1ccccc1)c1ccc(F)cc1 [SPIPERONE HYDROCHLORIDE] | – | – | – | – | – | – | – | IC50 [5]: 310 nM |
| COc1cc2c3c(c1OCC1CC1)-c1cc(NS(C)(=O)=O)ccc1CC3N(C)CC2 (racemic) | 433 nM | 385 nM | 505 nM | 114 nM | – | – | – | – |
| CN1CCc2cccc3c2C1Cc1ccc2nc(N)sc2c1-3 (racemic) | 1040 nM | 187 nM | – | 9.9 nM | Not Active | < 50% | – | Ki (D(4) dopamine receptor; read-out: Ki): 481 nM; Ki (D(1B) dopamine receptor): Not Active; inhibition (D(1B) dopamine receptor): < 50%; Ki (D(3) dopamine receptor): 381 nM; Ki (D(1A) dopamine receptor [7]): 1150 nM; Ki (D(2) dopamine receptor [8]): 1740 nM |
| CN(C)c1ccc2c(c1)-c1cccc3c1C(C2)N(C)CC3 (racemic) | 566 nM | 458 nM | 1590 nM | 17 nM | – | – | – | – |
| COc1cc2c3c(c1OC)-c1cc(NS(C)(=O)=O)ccc1CC3N(C)CC2 (racemic) | – | – | 86 nM | 89 nM | – | – | Not Active | Ki [10]: Not Active; inhibition [11]: < 50% |
| C#CCOc1c(OC)cc2c3c1-c1cc(NS(C)(=O)=O)ccc1CC3N(C)CC2 (racemic) | 1330 nM | 511 nM | 218 nM | 31 nM | – | – | – | – |
| COc1cc2c3c(c1OC)-c1cc(NC(N)=O)ccc1CC3N(C)CC2 (racemic) | – | – | 415 nM | 289 nM | – | – | Not Active | Ki [10]: Not Active; inhibition [11]: < 50% |
| C#CCOc1c(OC)cc2c3c1-c1cc(NC(=O)CCC)ccc1CC3N(C)CC2 (racemic) | 1040 nM | 661 nM | 354 nM | 455 nM | – | – | – | – |
| CCCN1CCc2cccc3c2C1Cc1ccc(NS(C)(=O)=O)cc1-3 (racemic) | – | 23 nM | – | 199 nM | Not Active | < 50% | Not Active | – |
| CCCC(=O)Nc1ccc2c(c1)-c1c(OCC3CC3)c(OC)cc3c1C(C2)N(C)CC3 (racemic) | 665 nM | 429 nM | 322 nM | 395 nM | – | – | – | – |
| C=CCOc1c(OC)cc2c3c1-c1cc(N(C)C)ccc1CC3N(C)CC2 (racemic) | 318 nM | – | 102 nM | 309 nM | – | – | – | Ki [10]: Not Active; inhibition [11]: < 50% |
| CCCN1CCc2cccc3c2C1Cc1ccc(NC(C)=O)cc1-3 (racemic) | – | 21 nM | – | – | Not Active | < 50% | Not Active | Ki [12]: Not Active; inhibition [13]: < 50% |
| CCCC(=O)Nc1ccc2c(c1)-c1cccc3c1C(C2)N(CCC)CC3 (racemic) | – | 15 nM | – | 311 nM | Not Active | < 50% | Not Active | – |
| COc1cc2c3c(c1OC)-c1cc(N(C)C)ccc1CC3N(C)CC2 (racemic) | 295 nM | 1570 nM | 127 nM | 73 nM | – | – | – | – |
| CN1CCc2cccc3c2C1Cc1cc2sc(N)nc2cc1-3 (racemic) | – | 23 nM | – | – | Not Active | – | Not Active | Ki (D(4) dopamine receptor): Not Active; Ki (D(1B) dopamine receptor): Not Active; Ki (D(1A) dopamine receptor [14]): Not Active; Ki (D(2) dopamine receptor [15]): Not Active |
| C#CCOc1c(OC)cc2c3c1-c1cc(NC(N)=O)ccc1CC3N(C)CC2 (racemic) | – | 911 nM | 410 nM | 123 nM | – | – | Not Active | – |
| CN1CCc2cccc3c2C1Cc1ccc(NS(C)(=O)=O)cc1-3 (racemic) | – | 133 nM | – | 27 nM | Not Active | < 50% | Not Active | – |
| CCCN1CCc2cccc3c2C1Cc1cc2sc(N)nc2cc1-3 (racemic) | – | 7.5 nM | – | 132 nM | Not Active | < 50% | Not Active | inhibition [16]: < 50%; Ki (D(4) dopamine receptor): Not Active; Ki (D(1B) dopamine receptor): Not Active; inhibition (D(1B) dopamine receptor): < 50%; Ratio Ki (Homo sapiens): 17; Ki (D(3) dopamine receptor): 2110 nM; Ki (D(1A) dopamine receptor [14]): Not Active; Ki (D(2) dopamine receptor [15]): Not Active; inhibition (D(1A) dopamine receptor [17]): < 50%; inhibition (D(2) dopamine receptor [18]): < 50% |
| COc1cc2c3c(c1OCC1CC1)-c1cc(NC(C)=O)ccc1CC3N(C)CC2 (racemic) | 974 nM | 1540 nM | 1500 nM | 636 nM | – | – | – | – |
| COc1cc2c3c(c1OCC1CC1)-c1cc(N)ccc1CC3N(C)CC2 (racemic) | 110 nM | – | 132 nM | 104 nM | – | – | – | Ki [10]: Not Active; inhibition [11]: < 50% |
| COc1cc2c3c(c1OCC1CC1)-c1cc(NC(N)=O)ccc1CC3N(C)CC2 (racemic) | 857 nM | 1280 nM | 527 nM | 353 nM | – | – | – | – |
| CCCC(=O)Nc1ccc2c(c1)-c1c(OC)c(OC)cc3c1C(C2)N(C)CC3 (racemic) | 417 nM | 469 nM | 356 nM | 67 nM | – | – | – | – |
| CCCN1CCc2cccc3c2C1Cc1ccc2nc(N)sc2c1-3 (racemic) | – | 93 nM | – | – | Not Active | < 50% | Not Active | – |
| CCCN1CCc2cccc3c2C1Cc1ccc(N(C)C)cc1-3 (racemic) | – | 256 nM | – | 984 nM | Not Active | < 50% | Not Active | – |
| C=CCOc1c(OC)cc2c3c1-c1cc(NS(C)(=O)=O)ccc1CC3N(C)CC2 (racemic) | 668 nM | 403 nM | 590 nM | 42 nM | – | – | – | – |
| CN1CCc2cccc3c2C1Cc1ccc(NC(N)=O)cc1-3 (racemic) | – | 49 nM | – | – | Not Active | – | Not Active | Ki (D(4) dopamine receptor): Not Active; Ki (D(1B) dopamine receptor): Not Active; Ki (D(3) dopamine receptor): 2460 nM; Ki (D(1A) dopamine receptor [14]): Not Active; Ki (D(2) dopamine receptor [15]): Not Active |
| CCCN1CCc2cccc3c2C1Cc1ccc(NC(N)=O)cc1-3 (racemic) | – | 236 nM | – | – | Not Active | < 50% | Not Active | Ki [12]: Not Active; inhibition [13]: < 50% |
| CCCN1CCc2cccc3c2C1Cc1ccc(N)cc1-3 (stereo not given) | – | 30 nM | – | 63 nM | Not Active | < 50% | Not Active | – |
